# In patent US11103602B2, “PET imaging of zinc transport” (Mayo Foundation for Medical Education and Research, priority 2013, dated 2021):
# Values joined by “and” are separate entries in the source; they are usually repeats but may differ in a detail not shown here. Equal values may be shown once.
# Experiments:
# [1] = cited from earlier work
# [2] = Biodistribution of ^63Zn citrate in normal mice; assay type: in vivo
# [3] = PET images of ^63Zn Citrate in human subjects; assay type: in vivo
# Source text: High uptake is seen in liver, pancreas, spleen, intestines, and thyroid.
# [4] = Pharmacokinetics of ^63Zn Citrate in cerebral cortical region of interest; assay type: in vivo, human; settings: for Vascular clearance phase in cerebral cortical region of interest: post-injection
# [5] = Biodistribution of ^63Zn citrate in normal mice; assay type: in vivo; remark: listed apart in the source
# Experimental: Uptake may be measured in units of Standardized Uptake Value (SUV)=(uptake/g tissue)/(injected dose/g body mass).
# Biodistribution characteristics of ^63Zn citrate were investigated in male B6.SJL mice (n=4) (Jackson Laboratories, Bar Harbor, Me., USA) under the approval of the Mayo Clinic Institutional Animal Care and Use Committee. Animals were administered ^63Zn citrate (˜1.8-3.6 MBq) into a tail vein and euthanized at 60 minutes for biodistribution analysis. Tissues were weighed and counted for radioactivity. Biodistribution data were expressed as Standard Uptake Value (SUV)=(counts/g)tissue/(injected dose counts/wt. of mouse (g)).
# Biodistribution data was expressed as mean±sd. Statistical comparison of analytical data between groups of runs was performed using the two-tailed Student's T-test. Statistical comparison of intracerebral regional uptake of ^63Zn was performed using ANOVA. P-values <0.05 were considered statistically significant.
# [6] = Pharmacokinetics of ^63Zn Citrate in blood and plasma of an Alzheimer's disease patient; assay type: in vivo, human
# Experimental: Venous blood samples were taken in heparinized tubes after injection of radiotracer. The samples were centrifuged, and plasma separated. The curves show a rapid clearance of ^63Zn from the blood that is completed by 90 minutes. After this time, the concentrations of ^63Zn in both plasma and whole blood are relatively constant. The concentration of ^63Zn in whole-blood rises relative to plasma to reach equilibrium at around 90 minutes post-injection.
# [7] = brain at 30 minutes; vs Be, Sc, V, Cr, Mn, Fe, Co, As, Se, Rb, Sr, Y, Zr, Tc, Ru; cited from earlier work
# [8] = individual normal (Wild) mice 1-5, 1 hour after IV
# [9] = individual normal (Wild) mice 3-5, 1 hour after IV
# [10] = mean of normal mice, 1 hour after IV
# [11] = mean of normal mice, 1 hour after IV, listed as 63Zn
# [12] = mean of normal mice, 1 hour after IV, listed as 63Zn Citrate
# [13] = subject with Alzheimer's disease
structure (smiles),measurement,setting,value
CN(C)Cc1ccc2c(Cl)cc(Cl)c(O)c2n1 [PBT2],Levels of AβO and p-Tau in the cerebrospinal fluid (CSF),[1]; AD patients treated for a 12-week period,significantly decreased
same,Cognitive test scores,"[1]; AD patients, 12-week period, highest dose level (250 mg daily)",significant improvement
O=C([O-])CC(O)(CC(=O)[O-])C(=O)[O-].O=C([O-])CC(O)(CC(=O)[O-])C(=O)[O-].[63Zn+2].[63Zn+2].[63Zn+2] [^63Zn citrate],Brain penetration (in words),"[2]; five normal male mice, IV, 1 hour",brain penetrant
same,"SUV, Bladder",[2]; [8],1.27 SUV and 3.66 SUV and 1.13 SUV and 0.73 SUV and 0.18 SUV
same,"SUV, Blood",[2]; [8],0.47 SUV and 0.36 SUV and 0.94 SUV and 0.69 SUV and 0.38 SUV
same,"SUV, Bone",[2]; [8],0.72 SUV and 0.5 SUV and 1.11 SUV (2×) and 0.38 SUV
same,"SUV, Brain Stem",[2]; [8],0.25 SUV (2×) and 0.34 SUV and 0.32 SUV and 0.11 SUV
same,"SUV, Caudate Nuclei",[2]; [8],0.34 SUV and 0.23 SUV and 0.57 SUV and 0.63 SUV and 0.09 SUV
same,"SUV, Cerebellum",[2]; [8],0.27 SUV (2×) and 0.38 SUV and 0.49 SUV and 0.13 SUV
same,"SUV, Cortex",[2]; [8],0.2 SUV (2×) and 0.19 SUV and 0.27 SUV and 0.09 SUV
same,"SUV, Heart",[2]; [8],1.11 SUV (2×) and 1.47 SUV and 1.1 SUV and 0.82 SUV
same,"SUV, Hippocampus",[2]; [8],0.28 SUV and 0.24 SUV and 0.88 SUV and 0.87 SUV and 0.12 SUV
same,"SUV, Kidney",[2]; [8],3.8 SUV and 4.32 SUV and 6.01 SUV and 4.49 SUV and 2.42 SUV
same,"SUV, Liver",[2]; [8],6.18 SUV and 5.27 SUV and 8.72 SUV and 6.29 SUV and 3.4 SUV
same,"SUV, Lung",[2]; [8],2.67 SUV and 1.8 SUV and 2.54 SUV and 2.19 SUV and 1.13 SUV
same,"SUV, Muscle",[2]; [8],0.2 SUV and 0.19 SUV and 0.31 SUV and 0.26 SUV and 0.1 SUV
same,"SUV, Pancreas",[2]; [8],10.67 SUV and 5.25 SUV and 11.95 SUV and 10.68 SUV and 5.33 SUV
same,"SUV, Spleen",[2]; [8],2.37 SUV and 1.8 SUV and 3.71 SUV and 2.62 SUV and 0.97 SUV
same,"SUV, Thalamus",[2]; [8],0.29 SUV and 0.25 SUV and 0.38 SUV and 0.28 SUV and 0.11 SUV
same,"SUV, Upper Intestine",[2]; [8],3.02 SUV and 2.99 SUV and 7.66 SUV and 6.46 SUV and 3.47 SUV
same,"SUV, Whole Brain",[2]; [8],0.25 SUV and 0.23 SUV and 0.35 SUV and 0.3 SUV and 0.1 SUV
same,"SUV, Prostate",[2]; [9],0.47 SUV and 0.85 SUV and 0.44 SUV
same,"SUV, Seminal Vesicle",[2]; [9],1.397 SUV and 2.588 SUV and 1.09 SUV
same,"SUV, Bladder, Average",[2]; [10],1.39 SUV
same,"SUV, Blood, Average",[2]; [10],0.57 ± 0.25 SUV
same,"SUV, Bone, Average",[2]; [10],0.76 ± 0.34 SUV
same,"SUV, Brain Stem, Average",[2]; [10],0.25 ± 0.09 SUV
same,"SUV, Caudate Nuclei, Average",[2]; [10],0.37 ± 0.23 SUV
same,"SUV, Cerebellum, Average",[2]; [10],0.31 ± 0.14 SUV
same,"SUV, Cortex, Average",[2]; [10],0.19 ± 0.07 SUV
same,"SUV, Heart, Average",[2]; [10],1.12 ± 0.23 SUV
same,"SUV, Hippocampus, Average",[2]; [10],0.48 ± 0.37 SUV
same,"SUV, Liver, Average",[2]; [10],6.0±1.9 SUV and 5.97 ± 1.92 SUV
same,"SUV, Lung, Average",[2]; [10],2.06 ± 0.62 SUV
same,"SUV, Muscle, Average",[2]; [10],0.21 ± 0.08 SUV
same,"SUV, Pancreas, Average",[2]; [10],8.8±3.2 SUV and 8.78 ± 3.22 SUV
same,"SUV, Prostate, Average",[2]; [10],0.58 ± 0.23 SUV
same,"SUV, Seminal Vesicle, Average",[2]; [10],1.69 ± 0.79 SUV
same,"SUV, Spleen, Average",[2]; [10],2.30 ± 1.01 SUV
same,"SUV, Thalamus, Average",[2]; [10],0.26 ± 0.10 SUV
same,"SUV, Upper Intestine, Average",[2]; [10],4.7±2.1 SUV and 4.72 ± 2.18 SUV
same,"SUV, Whole Brain, Average",[2]; [10],0.24 ± 0.09 SUV
same,"SUV, Pancreas, Average",[2]; [11],8.8±3.2 SUV
same,"SUV, Whole Brain, Average",[2]; [11],0.24±0.09 SUV
same,"SUV, Blood, Average",[2]; [12],0.57 SUV
same,"SUV, Bone, Average",[2]; [12],0.76 SUV
same,"SUV, Brain Stem, Average",[2]; [12],0.25 SUV
same,"SUV, Caudate Nuclei, Average",[2]; [12],0.37 SUV
same,"SUV, Cerebellum, Average",[2]; [12],0.31 SUV
same,"SUV, Cortex, Average",[2]; [12],0.19 SUV
same,"SUV, Heart, Average",[2]; [12],1.12 SUV
same,"SUV, Hippocampus, Average",[2]; [12],0.48 SUV
same,"SUV, Kidney, Average",[2]; [12],4.21 SUV
same,"SUV, Liver, Average",[2]; [12],5.97 SUV
same,"SUV, Lung, Average",[2]; [12],2.06 SUV
same,"SUV, Muscle, Average",[2]; [12],0.21 SUV
same,"SUV, Pancreas, Average",[2]; [12],8.78 SUV
same,"SUV, Prostate, Average",[2]; [12],0.58 SUV
same,"SUV, Seminal Vesicle, Average",[2]; [12],1.69 SUV
same,"SUV, Spleen, Average",[2]; [12],2.3 SUV
same,"SUV, Thalamus, Average",[2]; [12],0.26 SUV
same,"SUV, Upper Intestine, Average",[2]; [12],4.72 SUV
same,"SUV, Whole Brain, Average",[2]; [12],0.24 SUV
same,"Uptake in cerebral cortex, prostate, pituitary gland, and salivary glands (PET)",[3]; Alzheimer's disease subject,Moderate to low uptake
same,"Uptake in liver, pancreas, spleen, intestines, and thyroid (PET)",[3]; Alzheimer's disease subject,High uptake
same,"Uptake in cerebral cortex, pituitary gland, and salivary glands (PET)",[3]; healthy elderly human subject,Moderate to low uptake
same,"Uptake in liver, pancreas, spleen, intestines, and thyroid (PET)",[3]; healthy elderly human subject,High uptake
same,Clearance from the cortical brain region between 50 minutes and 90 minutes,[4]; healthy elderly subject,little clearance
same,Vascular clearance phase in cerebral cortical region of interest,[4]; healthy elderly subject,rapid vascular clearance phase in the first minute
same,Clearance from the cortical brain region between 50 minutes and 90 minutes,[4]; [13],little clearance
same,Vascular clearance phase in cerebral cortical region of interest,[4]; [13],rapid vascular clearance phase in the first minute
same,"SUV, Kidney, Average",[5]; [10],4.2±1.3 SUV and 4.21 ± 1.30 SUV
same,Differences in SUVs between intracerebral regions (ANOVA),"[5]; normal mice, 1 hour",did not show statistically significant differences
same,"Uptake in pancreas, liver, kidneys, upper intestines, prostate and seminal vesicles (in words)","[5]; normal mice, 1 hour after IV",high uptake
same,Uptake in brain regions (regional SUVs),"[5]; normal mice, 1 hour after IV, span over brain regions",0.2-0.5 SUV
same,Murine brain uptake (in words),"[5]; normal mice, 60 minutes","moderately low, but significant"
same,Time at which whole-blood concentration relative to plasma reaches equilibrium,[6]; post-injection,around 90 minutes
same,Time by which clearance from the blood is completed,[6]; venous blood samples after injection,≤ 90 min
[65Zn] [^65Zn],Zinc uptake in brain relative to the other metal ions measured,[7],several fold higher
